Measurements from ChEMBL document CHEMBL5241112, “Insights into the recent progress in the medicinal chemistry of pyranopyrimidine analogs” (RSC Med Chem, 2022).
Values after ≈ are worked out from the molar mass of the structure shown.

Experiments:
[1] = test system: HepG2; test: Anticancer activity against human HepG2 cells assessed as reduction in cell viability incubated for 24 hrs by MTT colorimetric assay; format: functional, cell-based; conditions: HepG2, 24 h
[2] = test system: MCF7; test: Anticancer activity against human MCF7 cells assessed as reduction in cell viability incubated for 24 hrs by MTT colorimetric assay; format: functional, cell-based; conditions: MCF7, 24 h
[3] = test system: HCT-116; test: Anticancer activity against human HCT-116 cells assessed as reduction in cell viability incubated for 24 hrs by MTT colorimetric assay; format: functional, cell-based; conditions: HCT-116, 24 h
[4] = Antioxidant activity assessed as H2O2 radical scavenging activity; format: functional
[5] = Antioxidant activity assessed as DPPH radical scavenging activity; format: functional
[6] = Antioxidant activity assessed as NO radical scavenging activity; format: functional
[7] = test system: Klebsiella pneumoniae; test: Antibacterial activity against Klebsiella pneumoniae assessed as diameter of inhibition zone at 100 ug/ml by disc diffusion method; format: functional; conditions: read-out: DIZ
[8] = test system: Staphylococcus aureus; test: Antibacterial activity against Staphylococcus aureus assessed as diameter of inhibition zone at 100 ug/ml by disc diffusion method; format: functional; conditions: read-out: DIZ
[9] = test system: Bacillus subtilis; test: Antibacterial activity against Bacillus subtilis assessed as diameter of inhibition zone at 100 ug/ml by disc diffusion method; format: functional; conditions: read-out: DIZ
[10] = test system: Escherichia coli; test: Antibacterial activity against Escherichia coli assessed as diameter of inhibition zone at 100 ug/ml by disc diffusion method; format: functional; conditions: read-out: DIZ
[11] = test system: Staphylococcus aureus; test: Antibacterial activity against Staphylococcus aureus NCIM 2654 assessed as diameter of inhibition zone incubated for 24 hrs by agar well diffusion method; format: functional
[12] = test system: Candida albicans; test: Antifungal activity against Candida albicans assessed as diameter of inhibition zone incubated for 48 hrs by agar well diffusion method; format: functional
[13] = Antioxidant activity assessed as DPPH radical scavenging activity at 12 ug incubated for 30 mins by spectrophotometric analysis; format: functional; conditions: dose 12.0 µg
[14] = test system: Proteus mirabilis; test: Antibacterial activity against Proteus mirabilis NTCC-289 assessed as diameter of inhibition zone incubated for 24 hrs by disc diffusion method; format: functional
[15] = test system: Aspergillus ochraceus; test: Antifungal activity against Aspergillus ochraceus AUCC-230 assessed as diameter of inhibition zone incubated for 24 hrs by disc diffusion method; format: functional
[16] = test system: Bacillus cereus; test: Antibacterial activity against Bacillus cereus ATCC-14579 assessed as diameter of inhibition zone incubated for 24 hrs by disc diffusion method; format: functional
[17] = test system: Staphylococcus aureus; test: Antibacterial activity against Staphylococcus aureus NCTC-7447 assessed as diameter of inhibition zone incubated for 24 hrs by disc diffusion method; format: functional
[18] = test system: Serratia marcescens; test: Antibacterial activity against Serratia marcescens IMRU-70 assessed as diameter of inhibition zone incubated for 24 hrs by disc diffusion method; format: functional
[19] = test system: Penicillium chrysogenum; test: Antifungal activity against Penicillium chrysogenum AUCC-530 assessed as diameter of inhibition zone incubated for 24 hrs by disc diffusion method; format: functional
[20] = test system: Aspergillus ochraceus; test: Antifungal activity against Aspergillus ochraceus assessed as diameter of inhibition zone by disc diffusion method; format: functional
[21] = test system: Penicillium chrysogenum; test: Antifungal activity against Penicillium chrysogenum assessed as diameter of inhibition zone by disc diffusion method; format: functional
[22] = test system: Serratia marcescens; test: Antibacterial activity against Serratia marcescens assessed as diameter of inhibition zone by disc diffusion method; format: functional
[23] = target: T1, Alpha-glucosidase (Saccharomyces cerevisiae S288c, UniProt P53341+P38158+P07265); test: Inhibition of Saccharomyces cerevisiae alpha-glucosidase assessed as decrease in release of p-nitrophenol using pNPG as substrate incubated for 10 mins by spectroscopic analysis; format: protein assay
[24] = target: T1, Alpha-glucosidase; test: Inhibition of Saccharomyces cerevisiae alpha-glucosidase preincubated for 5 mins followed by PNP-GLUC substrate addition and measured after 20 mins by spectroscopic analysis; format: protein assay
[25] = Inhibition of porcine pancreatic alpha-amylase preincubated for 10 mins followed by substrate starch addition and measured after 10 mins by colorimetric analysis; design: species or system Sus scrofa
[26] = test system: Escherichia coli; test: Antibacterial activity against Escherichia coli MTCC 723 assessed as diameter of inhibition zone at 0.1 mg/ml incubated for 24 hrs by agar well diffusion method; format: functional; conditions: read-out: DIZ
[27] = target: Albumin (Bos taurus, UniProt P02769); test: […] bovine serum albumin denaturation incubated for 23 mins by UV-Visible spectrophotometry
[28] = test system: Klebsiella pneumoniae; test: Antibacterial activity against Klebsiella pneumoniae MGH 78578 assessed as diameter of inhibition zone at 50 mg/ml incubated for 24 hrs by paper disk diffusion method; format: functional; conditions: read-out: DIZ
[29] = test system: Aspergillus fumigatus; test: microbe, parasite or virus in culture; format: functional; conditions: ATCC204305, dose 50 mg/ml, time 24 hrs, read-out: DIZ
[30] = test system: Escherichia coli; test: Antibacterial activity against Escherichia coli ATCC 25922 assessed as diameter of inhibition zone at 50 mg/ml incubated for 24 hrs by paper disk diffusion method; format: functional; conditions: read-out: DIZ
[31] = test system: HepG2; test: Anticancer activity against human HepG2 cells assessed as reduction in cell viability incubated for 48 hrs by MTT assay; format: functional, cell-based; conditions: HepG2, 48 h
[32] = test system: MCF7; test: Antiproliferative activity against human MCF7 cells assessed as reduction in cell proliferation; format: functional, cell-based
[33] = test system: HepG2; test: Antiproliferative activity against human HepG2 cells assessed as reduction in cell proliferation; format: functional, cell-based
[34] = Antiproliferative activity against human […] cells assessed as reduction in cell proliferation; format: functional, cell-based
[35] = test system: MCF7; test: cells; conditions: Homo sapiens, MCF7, 48 h

Chain of Albumin (P02769 whole entry, the tested form may be a part): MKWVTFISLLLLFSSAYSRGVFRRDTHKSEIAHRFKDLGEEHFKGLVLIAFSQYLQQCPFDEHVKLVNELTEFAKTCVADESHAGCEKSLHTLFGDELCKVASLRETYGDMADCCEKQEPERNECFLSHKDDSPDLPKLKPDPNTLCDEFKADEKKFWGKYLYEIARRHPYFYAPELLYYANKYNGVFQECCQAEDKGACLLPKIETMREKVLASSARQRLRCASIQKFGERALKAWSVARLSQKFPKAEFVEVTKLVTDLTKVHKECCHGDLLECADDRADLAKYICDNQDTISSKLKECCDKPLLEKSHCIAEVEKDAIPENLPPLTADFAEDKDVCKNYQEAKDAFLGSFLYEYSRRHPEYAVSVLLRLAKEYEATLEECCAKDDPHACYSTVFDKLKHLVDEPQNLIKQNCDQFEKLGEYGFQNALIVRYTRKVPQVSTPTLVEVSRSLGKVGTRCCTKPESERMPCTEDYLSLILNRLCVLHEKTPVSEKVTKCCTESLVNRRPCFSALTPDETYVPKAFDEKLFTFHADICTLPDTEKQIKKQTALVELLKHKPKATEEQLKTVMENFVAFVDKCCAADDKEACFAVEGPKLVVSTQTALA

`N#CC(C#N)=C1c2c(-c3ccccc3)n[nH]c2Oc2[nH]c(=O)nc(-c3ccccc3O)c21` showed an IC50 [1] of 30.1 µM, an IC50 [2] of 30.1 µM and an IC50 [3] of 30.1 µM.
In the case of `Nc1ncnc2c1C(c1ccc3c(c1)OCO3)c1ccc(O)cc1O2` (stereo not drawn), the IC50 [4] is reported as 53.54 µg/mL (≈ 160 µM) and the IC50 [5] is reported as 39.46 µg/mL (≈ 118 µM).
`Nc1ncnc2c1C(c1ccc([N+](=O)[O-])cc1)c1ccc(O)cc1O2` (stereo not drawn) showed an IC50 [4] of 53.54 µg/mL (≈ 159 µM), an IC50 [5] of 34.34 µg/mL (≈ 102 µM) and an IC50 [6] of 50.32 µg/mL (≈ 150 µM).
Work on `CCOC(=O)C1=C(C)Oc2nc(C)n(Cc3cn(-c4ccc([N+](=O)[O-])cc4)nn3)c(=O)c2C1c1ccc([N+](=O)[O-])cc1` (stereo not drawn) yielded a zone of inhibition at 100 µg/mL [7] of 14 mm, a zone of inhibition at 100 µg/mL [8] of 14 mm and a zone of inhibition at 100 µg/mL [9] of 12.5 mm. It also gave a zone of inhibition at 100 µg/mL [10] of 14.5 mm.
With `Cc1n[nH]c2c1C(c1ccc(Cl)cc1)c1c([nH]c(=O)[nH]c1=O)O2` (stereo not drawn) the “diameter of the inhibition zone (DIZ)” value [11] was 27 mm, the “diameter of the inhibition zone (DIZ)” value [12] was 18 mm and the Activity [13] was 58.8%.
With `N#CCc1nc2c3c(ncn2n1)Oc1c(c(=O)oc2ccccc12)C3c1ccc(Cl)cc1` (stereo not drawn) the “diameter of the inhibition zone (DIZ)” value [14] was 21 mm, the “diameter of the inhibition zone (DIZ)” value [15] was 15 mm and the “diameter of the inhibition zone (DIZ)” value [16] was 19 mm. The “diameter of the inhibition zone (DIZ)” value [17] was 18 mm, the “diameter of the inhibition zone (DIZ)” value [18] was 21 mm and the “diameter of the inhibition zone (DIZ)” value [19] was 13 mm.
`N#CC1=C(N)Oc2[nH]nc(-c3ccccc3)c2C1c1coc2ccccc2c1=O` (stereo not drawn) gave an IC50 [1] of 57.3 µg/mL, an IC50 [2] of 69.8 µg/mL and an IC50 [3] of 54.1 µg/mL.
In the case of `O=c1oc2ccccc2c2c1C(c1ccc(Cl)cc1)c1c(ncn3nc(CCl)nc13)O2` (stereo not drawn), the “diameter of the inhibition zone (DIZ)” value [14] is reported as 21 mm, the “diameter of the inhibition zone (DIZ)” value [15] is reported as 15 mm and the “diameter of the inhibition zone (DIZ)” value [16] is reported as 19 mm. The “diameter of the inhibition zone (DIZ)” value [17] was 18 mm, the “diameter of the inhibition zone (DIZ)” value [18] was 21 mm and the “diameter of the inhibition zone (DIZ)” value [19] was 13 mm.
`Nc1ncnc2c1C(c1ccc(Cl)cc1)c1ccc(O)cc1O2` (stereo not drawn) showed an IC50 [4] of 53.54 µg/mL (≈ 164 µM), an IC50 [5] of 36.82 µg/mL (≈ 113 µM) and an IC50 [6] of 50.32 µg/mL (≈ 154 µM).
For `Cc1nc2c3c(ncn2n1)Oc1ccc2cc(Br)ccc2c1C3`, the “diameter of the inhibition zone (DIZ)” value [20] was 17 mm, the “diameter of the inhibition zone (DIZ)” value [21] was 13 mm and the “diameter of the inhibition zone (DIZ)” value [22] was 23 mm.
For `COc1cc(/C=C/C(=O)C2=C(/C=C/c3ccc(O)c(OC)c3)Oc3[nH]c(=O)[nH]c(=O)c3C2c2cccc([N+](=O)[O-])c2)ccc1O` (stereo not drawn), the IC50 [23] was 9.7 µM.
Work on `O=C(C1=C(c2ccccc2O)Oc2[nH]c(=S)[nH]c(=O)c2C1c1ccccc1)N1CCCCC1` (stereo not drawn) yielded an IC50 [24] of 7745 µM, an IC50 [25] of 22.1 µM and a zone of inhibition at 100 µg/mL [26] of 13.1 mm. For the same molecule, the IC50 [27] was 19.9 µM.
For `Nc1ncnc2c1C(c1ccc(Cl)cc1)C=C(c1cc3ccccc3oc1=O)O2` (stereo not drawn), the zone of inhibition at 50000 µg/mL [28] was 14 mm, the zone of inhibition at 50000 µg/mL [29] was 10 mm and the zone of inhibition at 50000 µg/mL [30] was 10 mm.
In the case of `COc1ccc(C2CC(=O)Oc3[nH]c(=O)[nH]c(=O)c32)cc1` (stereo not drawn), the IC50 [31] is reported as 10.6 µM.
`Cc1ccc(S(=O)(=O)Nn2cnc3c(c2=N)C(c2cn(-c4ccccc4)nc2-c2ccccc2)c2c(ccc4ccccc24)O3)cc1` (stereo not drawn) gave an IC50 [32] of 9.29 µM, an IC50 [33] of 10 µM and an IC50 [34] of 4.9 µM.
Molecule `COc1cc(C2CC(=O)Oc3[nH]c(=O)[nH]c(=O)c32)ccc1O` (stereo not drawn) has an IC50 [31] of 10.6 µM and an IC50 [35] of 8.9 µM.
For `N#CC(C#N)=C1c2c(-c3ccccc3)n[nH]c2Oc2[nH]c(=S)nc(-c3ccccc3O)c21`, the IC50 [1] was 22.6 µM, the IC50 [2] was 22.6 µM and the IC50 [3] was 22.6 µM.
